Data reported in patent US10703757B2, “Compounds and methods for CDK8 modulation and indications therefor” (Plexxikon Inc., priority 2016, dated 2020).

Assays:
[1] = system: CDK8 (phosphorylation of STAT1 at serine 727 in A549 cells); assay: Cell based Phospho-STAT1 assay (IFNγ-stimulated A549 cells, AlphaLISA); details: Homo sapiens, A549, A549 cells, phospho-STAT1 after IFNγ stimulation
How it was run: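 A549 cells given serial compound dilutions for 1 h at 37 °C, then stimulated with IFNγ at 10 ng/mL final for 30 min. Lysate STAT1 Ser727 phosphorylation measured by AlphaLISA; % inhibition vs stimulated/unstimulated DMSO controls, IC50 by nonlinear regression.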

[2] = system: CDK8 (TCF/LEF luciferase reporter in HCT116 cells); assay: Cell based TCF/LEF reporter assay (HCT116+TCF/LEF luciferase); details: Homo sapiens, HCT-116, 24 h
From the text: Determine Inhibitor Activity Against CDK8 in Cell Based TCF/LEF Reporter Assay
The colorectal carcinoma cell line HCT116 was stably transduced with lentivirus encoding the TCF/LEF promoter upstream of a luciferase reporter gene (Qiagen) and single cell clones expressing this construct (referred to as HCT116+TCF/LEF) were isolated. HCT116 express endogenous mutant β-catenin^3, resulting in up-regulation of transcription through the TCF/LEF promoter. Expression of the TCF/LEF reporter construct in HCT116 results in constitutive expression of luciferase. Treatment of the cells with inhibitors of components of the β-catenin signaling pathway (such as CDK8) results in decreased expression of luciferase. The assay is performed as follows. The HCT116+TCF/LEF cell line is seeded in a 96 well plate in 50 μL of culture media at 1×10^4 cells/well and incubated at 37° C. overnight. Serial dilutions of compounds (in total volume of 50 μL culture media) are added to the cells and incubated at 37° C. for 24 hours. 4 wells of DMSO treated cells serve as high controls and cells treated with 10 uM of the reference compound CCT251545 (a known CDK8 inhibitor)^4 serve as low controls. The viability of the cells is assayed by the addition of […] reagent (Promega) followed by 30 minute incubation at 37° C. and quantification of the fluorescent signal (Ex400/Em505). The luciferase expression is then assayed by the addition of 25 μL ONE-Glo reagent (Promega) followed by 10 minute incubation at room temperature and quantification of the luminescence signal. The luminescence signal is normalized to the fluorescence signal to correct for any loss in cell viability over the 24 hour compound incubation period. The percentage inhibition at individual concentrations relative to high and low controls is calculated. The data are analyzed by using nonlinear regression to generate IC50 values.

| IC50 [1] | IC50 [2] | SMILES |
| --- | --- | --- |
| 0.1 to 100 nM | 0.1 to 100 nM | Cc1cc(-c2cnn3ccnc(C4=CCC(C#N)CC4)c23)ccc1-c1cnn(CC(C)(C)O)c1 (centres unmarked) [Compound P-0024, 4-(3-(4-(1-(2-hydroxy-2-methylpropyl)-1H-pyrazol-4-yl)-3 methylphenyl)pyrazolo[1,5-a]pyrazin-4-yl)cyclohex-3-ene-1-carbonitrile] |
| 0.1 to 100 nM | 0.1 to 100 nM | Cc1cc(-c2cnn3ccnc(C4CCC(C#N)CC4)c23)ccc1-c1cnn(CC(C)(C)O)c1 (centres unmarked) [Compound P-0025, (1s,4s)-4-(3-(4-(1-(2-hydroxy-2-methylpropyl)-1H-pyrazol-4-yl)-3-methylphenyl)pyrazolo[1,5-a]pyrazin-4-yl)cyclohexane-1-carbonitrile] |
| 0.1 to 100 nM | 0.1 to 100 nM | N#CC1CC=C(c2nccn3ncc(-c4ccc(-c5cnn(CC(N)=O)c5)cc4)c23)CC1 (centres unmarked) [Compound P-0027, 2-(4-(4-(4-(4-cyanocyclohex-1-en-1-yl)pyrazolo[1,5-a]pyrazin-3-yl)phenyl)-1H-pyrazol-1-yl)acetamide] |
| 0.1 to 100 nM | 0.1 to 100 nM | CS(=O)(=O)Cn1cc(-c2ccc(-c3cnn4ccnc(C5=CCC(C#N)CC5)c34)cc2)cn1 (centres unmarked) [Compound P-0028, 4-(3-(4-(1-((methylsulfonyl)methyl)-1H-pyrazol-4-yl)phenyl)pyrazolo[1,5-a]pyrazin-4-yl)cyclohex-3-ene-1-carbonitrile] |
| 0.1 to 100 nM | 0.1 to 100 nM | N#CC1CC=C(c2nccn3ncc(-c4ccc(-c5cnn(CC(F)F)c5)cc4)c23)CC1 (centres unmarked) [Compound P-0029, 4-(3-(4-(1-(2,2-difluoroethyl)-1H-pyrazol-4-yl)phenyl)pyrazolo[1,5-a]pyrazin-4-yl)cyclohex-3-ene-1-carbonitrile] |
| 0.1 to 100 nM | 0.1 to 100 nM | N#CCCn1cc(-c2ccc(-c3cnn4ccnc(C5=CCC(C#N)CC5)c34)cc2F)cn1 (centres unmarked) [Compound P-0030, 4-(3-(4-(1-(2-cyanoethyl)-1H-pyrazol-4-yl)-3-fluorophenyl)pyrazolo[1,5-a]pyrazin-4-yl)cyclohex-3-ene-1-carbonitrile] |
| 0.1 to 100 nM | 0.1 to 100 nM | CC(C)(O)Cn1cc(-c2ccc(-c3cnn4ccnc(C5CCC(C#N)CC5)c34)cc2Cl)cn1 (centres unmarked) [Compound P-0031, (1s,4s)-4-(3-(3-chloro-4-(1-(2-hydroxy-2-methylpropyl)-1H-pyrazol-4-yl)phenyl)pyrazolo[1,5-a]pyrazin-4-yl)cyclohexane-1-carbonitrile] |
| 0.1 to 100 nM | 0.1 to 100 nM | CC(C)(O)Cn1cc(-c2ccc(-c3cnn4ccnc(C5CCC(C#N)CC5)c34)cc2F)cn1 (centres unmarked) [Compound P-0032, (1s,4s)-4-(3-(3-fluoro-4-(1-(2-hydroxy-2-methylpropyl)-1H-pyrazol-4-yl)phenyl)pyrazolo[1,5-a]pyrazin-4-yl)cyclohexane-1-carbonitrile] |
| 0.1 to 100 nM | 0.1 to 100 nM | CS(=O)(=O)CCn1cc(-c2ccc(-c3cnn4ccnc(C5=CCC(C#N)CC5)c34)cc2)cn1 (centres unmarked) [Compound P-0033, 4-(3-(4-(1-(2-(methylsulfonyl)ethyl)-1H-pyrazol-4-yl)phenyl)pyrazolo[1,5-a]pyrazin-4-yl)cyclohex-3-ene-1-carbonitrile] |
| 0.1 to 100 nM | 0.1 to 100 nM | N#CC1CC=C(c2nccn3ncc(-c4ccc(-c5cnn(CC6CC6)c5)cc4)c23)CC1 (centres unmarked) [Compound P-0034, 4-(3-(4-(1-(cyclopropylmethyl)-1H-pyrazol-4-yl)phenyl)pyrazolo[1,5-a]pyrazin-4-yl)cyclohex-3-ene-1-carbonitrile] |
| 0.1 to 100 nM | 0.1 to 100 nM | CC(C)Cn1cc(-c2ccc(-c3cnn4ccnc(C5=CCC(C#N)CC5)c34)cc2)cn1 (centres unmarked) [Compound P-0035, 4-(3-(4-(1-isobutyl-1H-pyrazol-4-yl)phenyl)pyrazolo[1,5-a]pyrazin-4-yl)cyclohex-3-ene-1-carbonitrile] |

The next lines start with the molecule.

| SMILES | IC50 [1] | IC50 [2] |
| --- | --- | --- |
| N#CC1CC=C(c2nccn3ncc(-c4ccc(-c5cn[nH]c5)cc4)c23)CC1 (centres unmarked) [Compound P-0008, 4-(3-(4-(1H-pyrazol-4-yl)phenyl)pyrazolo[1,5-a]pyrazin-4-yl)cyclohex-3-ene-1-carbonitrile] | 0.1 to 100 nM | 0.1 to 100 nM |
| N#CCCCn1cc(-c2ccc(-c3cnn4ccnc(C5=CCC(C#N)CC5)c34)cc2)cn1 (centres unmarked) [Compound P-0009, 4-(3-(4-(1-(3-cyanopropyl)-1H-pyrazol-4-yl)phenyl)pyrazolo[1,5-a]pyrazin-4-yl)cyclohex-3-ene-1-carbonitrile] | 0.1 to 100 nM | 0.1 to 100 nM |
| N#CC1CC=C(c2nccn3ncc(-c4ccc(-c5cnn(C(F)F)c5)cc4)c23)CC1 (centres unmarked) [Compound P-0012, 4-(3-(4-(1-(difluoromethyl)-1H-pyrazol-4-yl)phenyl)pyrazolo[1,5-a]pyrazin-4-yl)cyclohex-3-ene-1-carbonitrile] | 0.1 to 100 nM | 0.1 to 100 nM |
| N#CC1CCC(c2nccn3ncc(-c4ccc(-c5cnn(CC(N)=O)c5)cc4)c23)CC1 (centres unmarked) [Compound P-0013, 2-(4-(4-(4-((1s,4s)-4-cyanoclohexyl)pyrazolo[1,5-a]pyrazin-3-yl)phenyl)-1H-pyrazol-1-yl)acetamide] | 0.1 to 100 nM | 0.1 to 100 nM |
| N#CCn1cc(-c2ccc(-c3cnn4ccnc(C5CCC(C#N)CC5)c34)cc2)cn1 (centres unmarked) [Compound P-0014, (1s,4s)-4-(3-(4-(1-(cyanomethyl)-1H-pyrazol-4-yl)phenyl)pyrazolo[1,5-a]pyrazin-4-yl)cyclohexane-1-carbonitrile] | 0.1 to 100 nM | 0.1 to 100 nM |
| CS(=O)(=O)CCn1cc(-c2ccc(-c3cnn4ccnc(C5CCC(C#N)CC5)c34)cc2)cn1 (centres unmarked) [Compound P-0015, (1s,4s)-(3-(4-(1-(2-(methylsulfonyl)ethyl)-1H-pyrazol-4-yl)phenyl)pyrazolo[1,5-a]pyrazin-4-yl)cyclohexane-1-carbonitrile] | 0.1 to 100 nM | 0.1 to 100 nM |
| N#CC1CCC(c2nccn3ncc(-c4ccc(-c5cnn(CCN6CCOCC6)c5)cc4)c23)CC1 (centres unmarked) [Compound P-0016, (1s,4s)-4-(3-(4-(1-(2-morpholinoethyl)-1H-pyrazol-4-yl)phenyl)pyrazolo[1,5-a]pyrazin-4-yl)cyclohexane-1-carbonitrile] | 0.1 to 100 nM | 0.1 to 100 nM |
| N#CC1CCC(c2nccn3ncc(-c4ccc(-c5cnn(CCN6CCCC6)c5)cc4)c23)CC1 (centres unmarked) [Compound P-0017, (1s,4s)-4-(3-(4-(1-(2-(pyrrolidin-1-yl)ethyl)-1H-pyrazol-4-yl)phenyl)pyrazolo[1,5-a]pyrazin-4-yl)cyclohexane-1-carbonitrile] | 0.1 to 100 nM | 0.1 to 100 nM |
| N#CC1CCC(c2nccn3ncc(-c4ccc(-c5cnn(CC6(C#N)CC6)c5)c(F)c4)c23)CC1 (centres unmarked) [Compound P-0018, (1s,4s)-4-(3-(4-(1-((1-cyanocyclopropyl)methyl)-1H-pyrazol-4-yl)-3-fluorophenyl)pyrazolo[1,5-a]pyrazin-4-yl)cyclohexane-1-carbonitrile] | 0.1 to 100 nM | 0.1 to 100 nM |
| N#CCCn1cc(-c2ccc(-c3cnn4ccnc(C5CCC(C#N)CC5)c34)cc2F)cn1 (centres unmarked) [Compound P-0019, (1s,4s)-4-(3-(4-(1-(2-cyanoethyl)-1H-pyrazol-4-yl)-3-fluorophenyl)pyrazolo[1,5-a]pyrazin-4-yl)cyclohexane-1-carbonitrile] | 0.1 to 100 nM | 0.1 to 100 nM |
| N#CC1CCC(c2nccn3ncc(-c4ccc(-c5cnn(CC6CC6)c5)cc4)c23)CC1 (centres unmarked) [Compound P-0020, (1s,4s)-4-(3-(4-(1-(cyclopropylmethyl)-1H-pyrazol-4-yl)phenyl)pyrazolo[1,5-a]pyrazin-4-yl)cyclohexane-1-carbonitrile] | 0.1 to 100 nM | 0.1 to 100 nM |
| N#CC1CCC(c2nccn3ncc(-c4ccc(-c5cnn(CC(F)F)c5)cc4)c23)CC1 (centres unmarked) [Compound P-0021, (1s,4s)-4-(3-(4-(1-(2,2-difluoroethyl)-1H-pyrazol-4-yl)phenyl)pyrazolo[1,5-a]pyrazin-4-yl)cyclohexane-1-carbonitrile] | 0.1 to 100 nM | 0.1 to 100 nM |
| N#CC1CCC(c2nccn3ncc(-c4ccc(-c5cnn(CC6CCC6)c5)cc4)c23)CC1 (centres unmarked) [Compound P-0022, (1s,4s)-4-(3-(4-(1-(cyclobutylmethyl)-1H-pyrazol-4-yl)phenyl)pyrazolo[1,5-a]pyrazin-4-yl)cyclohexane-1-carbonitrile] | 0.1 to 100 nM | 0.1 to 100 nM |
| CS(=O)(=O)Cn1cc(-c2ccc(-c3cnn4ccnc(C5CCC(C#N)CC5)c34)cc2)cn1 (centres unmarked) [Compound P-0023, (1s,4s)-4-(3-(4-(1-((methylsulfonyl)methyl)-1H-pyrazol-4-yl)phenyl)pyrazolo[1,5-a]pyrazin-4-yl)cyclohexane-1-carbonitrile] | 0.1 to 100 nM | 0.1 to 100 nM |
